Tests used:
Androgen receptor [1] = molecular target: T1, Androgen receptor (Mus musculus, UniProt P19091)
T1 sequence (P19091 whole entry): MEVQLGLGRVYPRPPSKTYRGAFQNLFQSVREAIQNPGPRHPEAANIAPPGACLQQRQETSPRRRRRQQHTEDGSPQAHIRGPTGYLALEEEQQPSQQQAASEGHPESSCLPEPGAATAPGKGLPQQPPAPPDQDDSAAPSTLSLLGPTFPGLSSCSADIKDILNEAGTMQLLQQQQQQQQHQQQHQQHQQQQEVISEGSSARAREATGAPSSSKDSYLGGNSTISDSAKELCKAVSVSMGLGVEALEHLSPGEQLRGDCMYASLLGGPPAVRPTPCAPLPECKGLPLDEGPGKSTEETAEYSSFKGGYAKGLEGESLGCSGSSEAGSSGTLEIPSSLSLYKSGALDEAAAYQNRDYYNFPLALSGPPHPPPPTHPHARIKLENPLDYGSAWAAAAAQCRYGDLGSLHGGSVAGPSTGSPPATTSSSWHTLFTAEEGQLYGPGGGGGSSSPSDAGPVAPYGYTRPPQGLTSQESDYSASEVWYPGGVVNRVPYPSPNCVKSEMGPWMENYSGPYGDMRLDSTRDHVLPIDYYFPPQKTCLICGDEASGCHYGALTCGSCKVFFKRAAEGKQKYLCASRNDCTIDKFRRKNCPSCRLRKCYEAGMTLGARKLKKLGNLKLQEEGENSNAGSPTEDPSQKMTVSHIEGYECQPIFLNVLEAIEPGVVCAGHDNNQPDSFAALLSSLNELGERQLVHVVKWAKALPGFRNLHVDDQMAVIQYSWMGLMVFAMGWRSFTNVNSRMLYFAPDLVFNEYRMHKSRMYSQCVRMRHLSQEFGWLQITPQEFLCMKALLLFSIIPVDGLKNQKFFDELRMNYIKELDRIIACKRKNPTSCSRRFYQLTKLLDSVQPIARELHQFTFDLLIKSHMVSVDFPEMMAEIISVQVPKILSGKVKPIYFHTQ
Description: Antagonist activity at androgen receptor in mouse C2C12 cells by receptor transactivation assay

Androgen receptor [2] = molecular target: T1, Androgen receptor; experiment: Agonist activity at androgen receptor in mouse C2C12 cells by receptor transactivation assay; type: functional, cell-based
Androgen receptor [3] = molecular target: T2, Androgen receptor (Homo sapiens, UniProt P10275); experiment: Displacement of [3H]DHT from human androgen receptor in MDA453 cells; type: cell-based
T2 sequence (P10275 whole entry): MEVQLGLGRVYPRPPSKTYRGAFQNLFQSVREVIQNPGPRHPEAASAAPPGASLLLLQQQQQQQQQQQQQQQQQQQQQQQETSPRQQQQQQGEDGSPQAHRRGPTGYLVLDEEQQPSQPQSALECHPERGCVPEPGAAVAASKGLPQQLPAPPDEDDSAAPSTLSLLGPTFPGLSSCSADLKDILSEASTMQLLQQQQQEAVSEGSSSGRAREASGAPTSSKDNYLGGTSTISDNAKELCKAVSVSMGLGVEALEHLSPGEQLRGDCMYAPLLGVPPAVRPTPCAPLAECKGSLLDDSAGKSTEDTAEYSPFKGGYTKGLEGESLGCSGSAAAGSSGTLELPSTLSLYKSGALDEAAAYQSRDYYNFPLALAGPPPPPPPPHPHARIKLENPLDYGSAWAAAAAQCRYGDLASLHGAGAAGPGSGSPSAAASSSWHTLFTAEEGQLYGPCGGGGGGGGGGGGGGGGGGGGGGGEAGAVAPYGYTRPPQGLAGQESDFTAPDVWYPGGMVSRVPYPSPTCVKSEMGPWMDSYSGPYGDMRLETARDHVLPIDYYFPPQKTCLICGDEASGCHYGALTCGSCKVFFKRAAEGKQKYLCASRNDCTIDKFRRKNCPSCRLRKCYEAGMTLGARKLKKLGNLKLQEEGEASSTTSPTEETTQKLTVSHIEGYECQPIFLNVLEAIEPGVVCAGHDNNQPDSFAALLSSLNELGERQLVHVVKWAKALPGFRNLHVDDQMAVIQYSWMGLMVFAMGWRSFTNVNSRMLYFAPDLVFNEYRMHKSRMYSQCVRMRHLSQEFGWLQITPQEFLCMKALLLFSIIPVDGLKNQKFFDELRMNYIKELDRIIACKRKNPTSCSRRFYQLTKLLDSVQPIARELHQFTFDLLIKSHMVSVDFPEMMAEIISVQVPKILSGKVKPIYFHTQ

[4] = Cmax in rat at 5 mg/kg, iv or 10 mg/kg, po; type: ADME, organism-based; conditions: in vivo
Rattus norvegicus [5] = experiment: Effect on […] in castrated rat at 10 mg/kg, po after 14 days relative to intact rat; type: functional
[6] = Half life in rat at 5 mg/kg, iv or 10 mg/kg, po; type: ADME, organism-based; conditions: in vivo
Rattus norvegicus [7] = experiment: Effect on levator ani muscle weight in castrated rat at 10 mg/kg, po after 14 days relative to intact rat; type: functional
[8] = Oral bioavailability in rat at 10 mg/kg; type: ADME, organism-based; conditions: in vivo
[9] = Clearance in rat at 5 mg/kg, iv or 10 mg/kg, po; type: ADME, organism-based; conditions: in vivo
Rattus norvegicus [10] = experiment: Effect on levator ani muscle weight in castrated rat at 0.3 mg/kg, sc after 14 days relative to intact rat; type: functional; conditions: route subcutaneous
Rattus norvegicus [11] = experiment: Effect on […] in castrated rat at 0.3 mg/kg, sc after 14 days relative to intact rat; type: functional; conditions: route subcutaneous

Row | Structure (SMILES) | EC50 (Androgen receptor [2]) [nM] | Ki (Androgen receptor [3]) [nM] | other results
1 | COC(=O)[C@@H]1[C@H](O)CCN1S(=O)(=O)c1ccc(C#N)c(Cl)c1C | > 3000 | 36 | IC50 (Androgen receptor [1]): 278 nM
2 | Cc1c(N2C(=O)[C@@H]3C[C@H](O)CN3S2(=O)=O)ccc(C#N)c1Cl | 3520 | 44 | 
3 | Cc1c(N2C(=O)[C@@H]3[C@H](O)CCN3S2(=O)=O)ccc(C#N)c1Cl | 11.9 | 0.45 | Cmax [4]: 8.4 µM; Activity (Rattus norvegicus [5]): 10%; half-life [6]: 54 min; Activity (Rattus norvegicus [7]): 70%; bioavailability [8]: 53%; clearance [9]: 12.8 mL/min/kg
4 | Cc1c(NS(=O)(=O)N2CC[C@@H](O)[C@H]2C(=O)O)ccc(C#N)c1Cl | 2.8 |  | 
5 | COC(=O)[C@@H]1[C@H](O)CCN1S(=O)(=O)Nc1ccc(C#N)c(Cl)c1C | 7460 |  | 
6 | N#Cc1ccc(N2C(=O)[C@@H]3[C@H](O)CCN3C2=O)c2ccccc12 | 2.3 |  | 
7 | CCC(=O)O[C@H]1CC[C@H]2[C@@H]3CCC4=CC(=O)CC[C@]4(C)[C@H]3CC[C@]12C [TESTOSTERONE PROPIONATE] | 2.8 | 0.25 | Activity (Rattus norvegicus [10]): 70%; Activity (Rattus norvegicus [11]): 70%
8 | Cc1c(N2C(=O)[C@]3(C)[C@H](O)CCN3S2(=O)=O)ccc(C#N)c1Cl | 1250 | 8.2 | 
9 | Cc1c(N2C(=O)[C@@H]3[C@@H](O)CCN3S2(=O)=O)ccc(C#N)c1Cl | 2960 | 29 | 
10 | Cc1c(N2C(C)[C@@H]3[C@@H](O)CCN3S2(=O)=O)ccc(C#N)c1Cl (stereo not given in full) | 8960 | 20 | 
11 | Cc1c(N2C[C@@H]3[C@H](O)CCN3S2(=O)=O)ccc(C#N)c1Cl | 7730 | 14 | 
12 | Cc1c(N2C(=O)[C@@H]3[C@H](O)CCN3C2=O)ccc(C#N)c1Cl | 0.44 |  | 
13 | Cc1c(N2C[C@@H]3[C@@H](O)CCN3S2(=O)=O)ccc(C#N)c1Cl |  | 189 | 

From ChEMBL document CHEMBL1149563 (Bioorg Med Chem Lett, 2007)
